Results published in patent publication US12172975B2, “1H-indazole carboxamides as receptor-interacting protein kinase 1 inhibitors (RIPK1)” (BRISTOL-MYERS SQUIBB COMPANY, priority 2018, dated 2024).
Structures can show the parent of a compound that is named as a salt. Where two headings read alike, the source gives them in different places.

Key:
[1] = biological target: His-GST-TVMV-hRIPK1 (1-324) (Homo sapiens (Human), UniProt Q13546); experiment: RIPK1 HTRF Binding Assay; conditions: read-out: RIPK1 HTRF (IC50); FRET probe displacement, 1 h at rt
His-GST-TVMV-hRIPK1 (1-324), sequence (Q13546 1-324): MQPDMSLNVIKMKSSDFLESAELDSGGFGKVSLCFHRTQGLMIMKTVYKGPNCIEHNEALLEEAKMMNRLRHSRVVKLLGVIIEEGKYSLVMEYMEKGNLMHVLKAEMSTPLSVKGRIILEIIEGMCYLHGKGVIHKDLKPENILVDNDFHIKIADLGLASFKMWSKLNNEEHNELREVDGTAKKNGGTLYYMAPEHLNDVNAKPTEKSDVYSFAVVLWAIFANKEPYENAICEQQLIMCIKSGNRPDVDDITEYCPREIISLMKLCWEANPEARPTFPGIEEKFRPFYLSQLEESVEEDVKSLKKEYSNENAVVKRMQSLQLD

[2] = tested on: MLKL phosphorylation in HT29-L23 human colorectal adenocarcinoma cells; experiment: MLKL Phosphorylation High-Content Assay; format: cell-based; conditions: 6 h, necroptosis induced with TNFα, SMAC mimetic and Z-VAD, read-out: pMLKL (IC50)
How it was run: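 Following fixation and staining for phospho-S358 MLKL with Hoechst nuclear counterstain, high-content imaging quantified phosphorylation in HT29-L23 cells challenged 6 h with TNFα 35 ng/mL, SMAC mimetic 700 nM and Z-VAD 140 nM. Nec-1s at 6.25 μM defined full inhibition; 4-parameter logistic fits yielded IC50 and Ymax.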

| SMILES | IC50 [1] | IC50 ([2]; Homo sapiens) | IC50 [2] |
| --- | --- | --- | --- |
| CNC(=O)c1n[nH]c2cc(-c3cnc(OC)c(C(=O)NCc4c(F)cccc4OC(C)C)c3)ccc12 [Example 127, 6-[5-({[2-fluoro-6-(propan-2-yloxy)phenyl]methyl}-carbamoyl)-6-methoxy-pyridin-3-yl]-N-methyl-1H-indazole-3-carboxamide] | 2.3 nM | 3.7 nM |  |
| CCN(C)C(=O)C1CCCC(NC(=O)c2cc(-c3ccc4c(C(=O)NC)n[nH]c4c3)cnc2OC)C1 (stereo not shown) [Example 122, 6-[5-({3-[ethyl(methyl)carbam-oyl]cyclohexyl}carbamoyl)-6-methoxypyridin-3-yl]-N-methyl-1H-indazole-3-carboxamide] | 12 nM |  | 120 nM |
| CNC(=O)c1n[nH]c2cc(-c3cc(C(=O)NC(C)c4ccccc4OC(F)(F)F)c(C)nc3C)ccc12 (stereo not shown) [Example 162, 6-[2,6-dimethyl-5-({1-[2-(trifluoromethoxy)phenyl]-ethyl}carbamoyl)pyridin-3-yl]-N-methyl-1H-indazole-3-carboxamide] | 43 nM | 74 nM |  |
| COc1ncc(-c2ccc3c(C(=O)NC4CC4)n[nH]c3c2)cc1C(=O)N[C@@H](C)c1cc(C(F)(F)F)ccc1F [Example 208, N-cyclopropyl-6-(5-{[(1S)-1-[2-fluoro-5-(trifluoromethyl)phenyl]-(2,2,2-deutero)ethyl]carbamoyl}-6-(deutero)methoxypyridin-3-yl)-1H-indazole-3-carboxamide, TFA] | 27 nM |  | 18 nM |
| [2H]C([2H])([2H])Oc1ncc(-c2ccc3c(C(=O)NCC4CC4)n[nH]c3c2)cc1C(=O)NC(C)c1cccc(OC(F)(F)F)c1 (stereo not shown) [Example 166, N-(cyclopropylmethyl)-6-[6-(deutero)methoxy-5-({1-[3-(tri-fluoromethoxy)phenyl]ethyl}-carbamoyl)pyridin-3-yl]-1H-indazole-3-carboxamide] | 83 nM | 34 nM |  |
| CCCCNC(=O)c1n[nH]c2cc(-c3cnc(OC)c(C(=O)NCc4ccccc4OC(F)(F)F)c3)ccc12 [Example 175, N-butyl-6-[6-methoxy-5-({[2-(trifluoromethoxy)phenyl]-methyl}carbamoyl)pyridin-3-yl]-1H-indazole-3-carboxamide] | 9.9 nM | 29 nM |  |
| CNC(=O)c1n[nH]c2cc(-c3cnc(OC)c(C(=O)NCC[C@H](O)c4ccc(Cl)cc4)c3)cc(F)c12 [Example 145, 6-(5-{[(3S)-3-(4-chloro-phenyl)-3-hydroxypropyl]-carbamoyl}-6-methoxy-pyridin-3-yl)-4-fluoro-N-methyl-1H-indazole-3-carboxamide] | 9.6 nM | 200 nM |  |
| COc1ncc(-c2ccc3c(C(=O)NC4CC4)n[nH]c3c2)cc1C(=O)N[C@H](C)c1cccc(OC(F)(F)F)c1 [Example 205, N-cyclopropyl-6-[6-(deutero)-methoxy-5-{[(1R)-1-[3-(trifluoro-methoxy)phenyl](2,2,2-deutero)-ethyl]carbamoyl}pyridin-3-yl]-1H-indazole-3-carboxamide, TFA] | 20 nM |  | 60 nM |
| CCNC(=O)c1n[nH]c2cc(-c3cnc(OC)c(C(=O)NCc4ccccc4OC(F)(F)F)c3)ccc12 [Example 170, N-ethyl-6-[6-methoxy-5-({[2-(trifluoromethoxy)phenyl]-methyl}carbamoyl)pyridin-3-yl]-1H-indazole-3-carboxamide] | 7.9 nM | 23 nM |  |
| [2H]C([2H])([2H])Oc1ncc(-c2ccc3c(C(=O)NC4CC4)n[nH]c3c2)cc1C(=O)NC1CCCC(C(=O)N2CCC(F)(F)C2)C1 (stereo not shown) [Example 203, N-cyclopropyl-6-(5-{[3-(3,3-difluoropyrrolidine-1-carbonyl)-cyclohexyl]carbamoyl}-6-(deutero)methoxypyridin-3-yl)-1H-indazole-3-carboxamide, TFA] | 12 nM | 95 nM |  |
| CCN(CC1CCC1)C(=O)C1CCCC(NC(=O)c2cc(-c3ccc4c(C(=O)NC)n[nH]c4c3)cnc2OC)C1 (stereo not shown) [Example 124, 6-[5-({3-[(cyclobutylmethyl)-(ethyl)carbamoyl]cyclohexyl}-carbamoyl)-6-methoxypyridin-3-yl]-N-methyl-1H-indazole-3-carboxamide] | 26 nM | 83 nM |  |
| CNC(=O)c1n[nH]c2cc(-c3cnc(OC)c(C(=O)NCC(O)COc4ccccc4)c3)ccc12 (stereo not shown) [Example 56, 6-{5-[(2-hydroxy-3-phenoxy-propyl)carbamoyl]-6-meth-oxypyridin-3-yl}-N-methyl-1H-indazole-3-carboxamide] | 8.4 nM | 26 nM |  |
| CNC(=O)c1n[nH]c2cc(-c3cnc(C)c(C(=O)NC(C)c4cccc(OC(F)(F)F)c4)c3)ccc12 (single isomer, unassigned) [Example 155, N-methyl-6-[6-methyl-5-({1-[3-(tri-fluoromethoxy)phenyl]ethyl}car-bamoyl)pyridin-3-yl]-1H-indazole-3-carboxamide] | 13 nM |  | 22 nM |
| CNC(=O)c1n[nH]c2cc(-c3cnc(OC)c(C(=O)NCC4(c5ccc(F)cc5)CC4)c3)ccc12 [Example 71, 6-[5-({[1-(4-fluorophenyl)cyclo-propyl]methyl}carbamoyl)-6-methoxypyridin-3-yl]-N-methyl-1H-indazole-3-carboxamide] | 80 nM | 77 nM |  |
| [2H]C([2H])([2H])Oc1ncc(-c2ccc3c(C(=O)NC4CC4)n[nH]c3c2)cc1C(=O)N[C@H](C)c1cccc(C(F)(F)F)c1 [Example 210, N-cyclopropyl-6-[6-(deutero)meth-oxy-5-{[(1R)-1-[3-(trifluorometh-yl)phenyl]ethyl]carbamoyl}pyridin-3-yl]-1H-indazole-3-carboxamide] | 450 nM | 88 nM |  |
| CNC(=O)c1n[nH]c2cc(-c3cnc(OC)c(C(=O)NCC(C)(C)C(=O)NCc4ccc(F)cc4)c3)ccc12 [Example 91, 6-{5-[(2-{[(4-fluorophenyl)-methyl]carbamoyl}-2,2-dimethylethyl)carbamoyl]-6-methoxypyridin-3-yl}-N-methyl-1H-indazole-3-carboxamide] | 1.8 nM | 16 nM |  |
| CNC(=O)c1n[nH]c2cc(-c3cnc(OC)c(C(=O)NCc4cccc(OC(F)(F)F)c4F)c3)ccc12 [Example 119, 6-[5-({[2-fluoro-3-(trifluoro-methoxy)phenyl]methyl}-carbamoyl)-6-methoxy-pyridin-3-yl]-N-methyl-1H-indazole-3-carboxamide] | 33 nM | 110 nM |  |
| CNC(=O)c1n[nH]c2cc(-c3cnc(OC)c(C(=O)NCCCOc4ccc(F)cc4)c3)ccc12 [Example 63, 6-(5-{[3-(4-fluorophenoxy)-propyl]carbamoyl}-6-methoxy-pyridin-3-yl)-N-methyl-1H-indazole-3-carboxamide] | 2.3 nM | 16 nM |  |
| CNC(=O)c1n[nH]c2cc(-c3cnc(OC)c(C(=O)NC(C)c4cccc(C(F)(F)F)c4)c3)ccc12 (stereo not shown) [Example 101, 6-[6-methoxy-5-({1-[3-(tri-fluoromethyl)phenyl]ethyl}-carbamoyl)pyridin-3-yl]-N-methyl-1H-indazole-3-carbox-amide] | 4.5 nM |  | 19 nM |
| COc1ncc(-c2ccc3c(C(=O)NC4CC4)n[nH]c3c2)cc1C(=O)N[C@H](C)c1cc(OC(F)(F)F)ccc1F [Example 207, N-cyclopropyl-6-(5-{[(1R)-1-[2-fluoro-5-(trifluoromethoxy)-phenyl](2,2,2-deutero)ethyl]-carbamoyl}-6-(deutero)methoxy-pyridin-3-yl)-1H-indazole-3-carboxamide] | 53 nM |  | 110 nM |
